Among the data in publication PMC5023640, “Purification and characterization of an extracellular β-xylosidase from Pseudozyma hubeiensis NCIM 3574 (PhXyl), an unexplored yeast” (AMB Express, 2016) are activity values, retold here.

The test deals with T1, PhXyl (extracellular β-xylosidase) (Pseudozyma hubeiensis, UniProt R9NZV8).
T1 construct: gene PHSY_001848; native extracellular enzyme purified from culture supernatant
T1 sequence (R9NZV8 24-873): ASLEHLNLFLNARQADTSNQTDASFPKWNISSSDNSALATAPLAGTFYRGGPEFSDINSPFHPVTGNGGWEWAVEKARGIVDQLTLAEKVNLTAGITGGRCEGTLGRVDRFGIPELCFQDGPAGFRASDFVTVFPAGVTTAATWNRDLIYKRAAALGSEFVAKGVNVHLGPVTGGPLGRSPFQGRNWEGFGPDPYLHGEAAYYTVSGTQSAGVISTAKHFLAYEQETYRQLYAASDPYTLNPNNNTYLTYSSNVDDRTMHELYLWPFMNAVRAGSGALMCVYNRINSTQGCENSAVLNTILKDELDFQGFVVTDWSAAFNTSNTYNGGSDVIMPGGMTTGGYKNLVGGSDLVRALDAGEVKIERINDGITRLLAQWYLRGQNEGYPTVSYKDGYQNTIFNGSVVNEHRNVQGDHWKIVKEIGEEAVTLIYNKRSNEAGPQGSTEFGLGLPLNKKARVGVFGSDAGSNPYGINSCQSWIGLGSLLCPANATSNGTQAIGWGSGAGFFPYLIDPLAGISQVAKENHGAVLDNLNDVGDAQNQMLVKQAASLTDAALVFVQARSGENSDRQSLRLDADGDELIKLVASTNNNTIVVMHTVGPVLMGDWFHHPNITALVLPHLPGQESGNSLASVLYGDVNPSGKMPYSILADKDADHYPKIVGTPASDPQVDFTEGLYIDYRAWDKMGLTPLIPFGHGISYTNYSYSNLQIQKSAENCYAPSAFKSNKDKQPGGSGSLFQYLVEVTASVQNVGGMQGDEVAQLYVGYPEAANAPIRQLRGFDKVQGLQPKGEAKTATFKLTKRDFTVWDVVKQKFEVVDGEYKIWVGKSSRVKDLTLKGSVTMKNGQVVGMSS
Kind of test: inhibition of pNPX hydrolysis. Type of test: biochemical. As to conditions: read-out: % activity at 75 mM.

Consider `OC1OC[C@@H](O)[C@H](O)[C@H]1O` (stereo partly shown) [xylose], for which the activity at 75000 µM is 50%.
